Our source for the IC50 values is ChEMBL document CHEMBL5104144, “Exploring the roles of the Cdc2-like kinases in cancers” (Bioorg Med Chem, 2022).

Experiment [1] has as its target T1, Dual specificity protein kinase CLK4 (Homo sapiens, UniProt Q9HAZ1). The experiment is described as follows: Inhibition of CLK4 (unknown origin) assessed as reduction in SRSF10 phosphorylation.
Experiment [2] addresses T2, Dual specificity protein kinase CLK1 (Homo sapiens, UniProt P49759). The experiment is described as follows: Inhibition of CLK1 (unknown origin).
Experiment [3] concerns the target T1, Dual specificity protein kinase CLK4. The experiment is described as follows: Inhibition of CLK4 (unknown origin).
Experiment [4] has the same target. The experiment is described as follows: Inhibition of CLK4 (unknown origin) assessed as reduction in SRSF1 phosphorylation.
Experiment [5] has as its target T2, Dual specificity protein kinase CLK1. Nature of the experiment: Inhibition of CLK1 (unknown origin) assessed as reduction in SRSF10 phosphorylation.
Experiment [6] is described as follows: Inhibition of GST-tagged recombinant mouse CLK1/STY expressed in Escherichia coli using RSPSYGRSRSRSRSRSRSRSRSNSRSRSY as substrate in presence of [gamma-32P]ATP by a liquid scintillation counter method.
Experiment [7] can be described thus: Inhibition of GST-tagged recombinant mouse CLK2 expressed in Escherichia coli using RSPSYGRSRSRSRSRSRSRSRSNSRSRSY as substrate in presence of [gamma-32P]ATP by a liquid scintillation counter method.
Experiment [8] deals with T1, Dual specificity protein kinase CLK4. The experiment is described as follows: Inhibition of human CLK4 (146 to 480 residues) expressed in Escherichia coli BL21 (DE3) Turner using MBP as substrate incubated for 60 mins in presence of [gamma-32P]ATP by radiometric kinase assay.

T1 sequence (Q9HAZ1 whole entry): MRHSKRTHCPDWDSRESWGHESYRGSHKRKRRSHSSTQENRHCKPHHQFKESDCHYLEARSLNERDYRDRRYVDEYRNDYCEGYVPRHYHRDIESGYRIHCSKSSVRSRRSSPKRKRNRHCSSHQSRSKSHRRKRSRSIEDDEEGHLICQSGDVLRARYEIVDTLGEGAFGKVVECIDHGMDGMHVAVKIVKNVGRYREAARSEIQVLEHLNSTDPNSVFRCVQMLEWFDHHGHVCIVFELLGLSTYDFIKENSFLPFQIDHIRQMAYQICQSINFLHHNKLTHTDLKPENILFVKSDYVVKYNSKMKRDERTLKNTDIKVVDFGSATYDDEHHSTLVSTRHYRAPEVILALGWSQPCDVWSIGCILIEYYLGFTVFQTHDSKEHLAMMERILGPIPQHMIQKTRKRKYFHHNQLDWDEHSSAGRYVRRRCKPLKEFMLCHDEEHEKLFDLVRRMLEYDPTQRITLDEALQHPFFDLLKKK
T2 sequence (P49759 whole entry): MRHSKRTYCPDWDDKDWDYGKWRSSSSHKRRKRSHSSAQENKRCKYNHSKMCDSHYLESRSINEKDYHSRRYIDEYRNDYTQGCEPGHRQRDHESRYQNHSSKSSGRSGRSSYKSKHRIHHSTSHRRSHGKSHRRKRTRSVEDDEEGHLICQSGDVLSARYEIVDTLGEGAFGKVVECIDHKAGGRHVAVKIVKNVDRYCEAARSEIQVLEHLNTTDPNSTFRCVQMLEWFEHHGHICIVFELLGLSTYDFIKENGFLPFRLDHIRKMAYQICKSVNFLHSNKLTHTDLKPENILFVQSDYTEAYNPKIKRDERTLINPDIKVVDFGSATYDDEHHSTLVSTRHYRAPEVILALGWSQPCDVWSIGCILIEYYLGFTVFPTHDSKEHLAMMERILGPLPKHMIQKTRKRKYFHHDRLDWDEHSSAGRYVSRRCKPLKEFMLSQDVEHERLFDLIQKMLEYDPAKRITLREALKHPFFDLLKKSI

Broadly, the IC50 is the concentration that gives 50% inhibition. With `O=C(Nc1ccc2[nH]cnc2c1)c1csc(Nc2ccccc2)n1`, the IC50 is 0.014 µM in experiment [1]; 0.044 µM in experiment [2]; 0.014 µM in experiment [3]; 0.024 µM in experiment [4]; 0.044 µM in experiment [5].
As for `CCN1/C(=C/C(C)=O)Sc2ccc(OC)cc21`, the IC50 amounted to 0.02 µM in experiment [6] and 0.2 µM in experiment [7].
As for `O=C(O)c1ccc2c(c1)nc(Nc1cccc(Cl)c1)c1ccncc12` [SILMITASERTIB], in experiment [8], the IC50 came to 0.011 µM.
